Reference: patent US9840712B2, “CD133 aptamers for detection of cancer stem cells” (DEAKIN UNIVERSITY, priority 2012, dated 2017)
Where two headings read alike, the source gives them in different places. In the oligonucleotide strings, read from the 5' end, every base follows the letter of its sugar. An asterisk marks phosphorothioate; unmarked linkages are phosphodiester. Other units and linkages are bracketed, terminal groups are in braces. A string of capitals states the bases alone. r = 2'-OH (RNA); f = 2'-fluoro

Key:
[1] = system: colon cancer cells (HT29); details: 1 μM; for Tumoursphere formation after treatment: 3 days post-treatment
[2] = system: CD133-negative HEK293T cells; assay: Aptamer dissociation constant by flow cytometry, HEK293T cells (specificity); parameters: species or system human; details: binding at 37° C. for 30 min
Experimental: (§1) Cells were harvested at 80% confluence with trypsin digestion and resuspended in washing buffer (DPBS with 2.5 mM MgCl2) and enumerated. Following centrifugation (1000×g for 5 min), the cell pellet was resuspended in binding buffer (DPBS supplemented with 5 mM MgCl2, 0.1 mg/ml tRNA, 0.1 mg/ml salmon sperm DNA) and diluted to 1×10^6/mL.
(§2) The dissociation constant (Kd) of successful 2′-fluoropyrimidine RNA aptamer species to native CD133 expressed on the cell surface was determined using flow cytometry. […] The mean fluorescence intensity (MFI) of the unselected library was subtracted from that of the aptamer-target cell to generate the MFI of specific binding. The Kd for each aptamer was determined by Scatchard analysis according to the equation: [Bound aptamer]/[aptamer]=−(1/Kd)×[bound aptamer]+([T]tot/Kd) where [T]tot represents the total target concentration. […]
(§3) To generate the truncated aptamers, the sense and antisense DNA oligonucleotides of desired sequences were synthesised. […] The binding affinities of these two aptamers and a negative control aptamer was determined using CD133 positive (HT-29 and Hep3B) and CD133 negative cell lines (T98G and HEK293T). […]

[3] = target: T1, CD133 expressed on HT-29 cells (Homo sapiens, UniProt O43490); assay: Aptamer dissociation constant by flow cytometry, HT-29 cells; details: HT-29 cells (CD133-positive); binding at 37° C. for 30 min
T1 construct: determined using CD133 positive (HT-29 and Hep3B) and CD133 negative cell lines (T98G and HEK293T); host or cells: HT-29
T1 sequence (O43490 20-865): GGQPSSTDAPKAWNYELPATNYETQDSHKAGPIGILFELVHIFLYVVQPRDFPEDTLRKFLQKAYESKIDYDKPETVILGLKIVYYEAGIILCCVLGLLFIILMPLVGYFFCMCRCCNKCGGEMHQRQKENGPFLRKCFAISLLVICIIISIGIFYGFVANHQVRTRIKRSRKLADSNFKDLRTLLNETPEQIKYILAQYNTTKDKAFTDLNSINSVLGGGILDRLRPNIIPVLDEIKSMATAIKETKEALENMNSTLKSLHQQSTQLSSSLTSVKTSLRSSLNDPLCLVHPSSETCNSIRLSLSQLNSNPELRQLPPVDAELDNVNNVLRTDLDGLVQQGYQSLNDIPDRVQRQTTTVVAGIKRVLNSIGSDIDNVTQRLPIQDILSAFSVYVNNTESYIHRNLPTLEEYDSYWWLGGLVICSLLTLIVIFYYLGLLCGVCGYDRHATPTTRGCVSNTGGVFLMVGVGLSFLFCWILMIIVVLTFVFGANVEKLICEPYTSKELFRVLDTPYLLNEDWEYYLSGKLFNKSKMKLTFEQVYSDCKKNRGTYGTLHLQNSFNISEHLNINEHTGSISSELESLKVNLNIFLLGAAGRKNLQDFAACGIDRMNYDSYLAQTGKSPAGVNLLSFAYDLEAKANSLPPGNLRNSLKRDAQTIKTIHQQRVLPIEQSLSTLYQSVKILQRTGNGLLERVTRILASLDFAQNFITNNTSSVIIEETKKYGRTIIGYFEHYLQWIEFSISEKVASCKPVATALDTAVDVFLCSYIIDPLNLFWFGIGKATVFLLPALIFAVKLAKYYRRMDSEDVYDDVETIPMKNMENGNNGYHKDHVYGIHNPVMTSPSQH
Experimental: as §1, §2, §3

[4] = target: T2, CD133 expressed on Hep3B cells (Homo sapiens, UniProt O43490); assay: Aptamer dissociation constant by flow cytometry, Hep3B cells; details: Hep3B cells (CD133-positive); binding at 37° C. for 30 min
T2 construct: determined using CD133 positive (HT-29 and Hep3B) and CD133 negative cell lines (T98G and HEK293T); host or cells: Hep3B
T2 sequence (O43490 20-865): T1 sequence (O43490 20-865)
Experimental: as §1, §2, §3

[5] = system: CD133-negative T98G cells; assay: Aptamer dissociation constant by flow cytometry, T98G cells (specificity); parameters: species or system human; details: binding at 37° C. for 30 min
Experimental: as §1, §2, §3

Molecule | Tumoursphere formation after treatment ([1]; 10 cells/well) | Tumoursphere formation after treatment ([1]; 50 cells/well) | inhibition of tumoursphere formation (in words) ([1]; 100 cells/well) | Tumoursphere formation after treatment ([1]; 100 cells/well) | Kd [2] | Kd [3] | Kd [4] | Kd [5]
COc1cccc2c1C(=O)c1c(O)c3c(c(O)c1C2=O)C[C@@](O)(C(=O)CO)C[C@@H]3O[C@H]1C[C@H](N)[C@H](O)[C@H](C)O1 [Doxorubicin, doxorubicin] | 5/5 | 5/5 | no effect | 5/5 |  |  |  | 
CD133-2-1: 19 mer 2′-F-pyrimidine RNA aptamer, 5′-CAGAACGUAUACUAUUCUG-3′ (SEQ ID NO:6) (fCrArGrArAfCrGfUrAfUrAfCfUrAfUfUfCfUrG; further chemistry not given here) |  |  |  |  | 1740 µM | 0.145 µM | 0.052 µM | 4.76 µM
CD133-1-2-2: 15 mer 2′-F-pyrimidine RNA aptamer, 5′-CC CUC CUA CAU AGG G-3′ (SEQ ID NO:1) (fCfCfCfUfCfCfUrAfCrAfUrArGrGrG; further chemistry not given here) |  |  |  |  | 120 µM | 0.082 µM | 0.032 µM | 275 µM
